Earlier results in PubChem BioAssay AID1259410 (Chemical Carcinogenesis Research Information System (CCRIS), 2018).

Tested on: rodent tumor promotion studies, tumor incidence
Test: CCRIS tumor promotion studies

## Clc1ccc(-c2ccc(Cl)c(Cl)c2)cc1Cl
Carcinogen: 7,12-DIMETHYLBENZ[A]ANTHRACENE, 57-97-6, Doses [Carcinogen]: 10 MG IN 0.5 ML CORN OIL ONCE, Doses [Promoter]: 0, 10 MG/KG BW ONCE AT TIME OF CARCINOGEN DOSE THEN 500 UG/G OF FAT IN DIET FOR 1 WK ADMINISTERED TO RATS FED HIGH-FAT (, Route [Carcinogen]: GAVAGE, Route [Promoter]: GAVAGE, ORAL, Species: RAT, Strain/Sex: SPRAGUE-DAWLEY/FEMALE
  outcome: mammary gland: tumor
Carcinogen: 7,12-DIMETHYLBENZ[A]ANTHRACENE, 57-97-6, Doses [Carcinogen]: 10 MG IN 0.5 ML CORN OIL ONCE, Doses [Promoter]: 0, 10 MG/KG BW ONCE AT TIME OF CARCINOGEN DOSE THEN 500 UG/G OF FAT IN DIET FOR 1 WK ADMINISTERED TO RATS FED LOW FAT (5, Route [Carcinogen]: GAVAGE, Route [Promoter]: GAVAGE, ORAL, Species: RAT, Strain/Sex: SPRAGUE-DAWLEY/FEMALE
  outcome: mammary gland: tumor

## C=C1/C(=C\C=C2/CCC[C@]3(C)[C@@H]([C@H](C)CCC(F)(F)C(C)(C)O)CC[C@@H]23)C[C@H](O)C[C@H]1O
Carcinogen: 7,12-DIMETHYLBENZ[A]ANTHRACENE, 57-97-6, Doses [Carcinogen]: 50 NMOL IN 200 µL ACETONE 2/WK FOR 16 WK, Doses [Promoter]: 0, 0.05, 0.1 NMOL IN 200 µL ACETONE APPLIED 1 HR PRIOR TO CARCINOGEN DOSES 2/WK FOR 16 WK (STUDY DURATION: 16 WK), Doses [Promoter]: 0, 0.05, 0.1 NMOL IN 200 µL ACETONE APPLIED 1 HR PRIOR TO CARCINOGEN DOSES 2/WK FOR 16 WK (STUDY DURATION: 16 WK), Route [Carcinogen]: DERMAL, Route [Promoter]: DERMAL, Species: MOUSE, Strain/Sex: CD-1/FEMALE
  outcome: skin: tumors

## CCCCCCOc1cc(C)c(O)c(C)c1C
Carcinogen: DIETHYLNITROSAMINE, 55-18-5, N-METHYL-N-NITROSOUREA, 684-93-5, N-BUTYL-N-(4-HYDROXYBUTYL)NITROSAMINE, 3817-11-6, DIMETHY, Carcinogen: DIETHYLNITROSAMINE, 55-18-5, N-METHYL-N-NITROSOUREA, 684-93-5, N-BUTYL-N-(4-HYDROXYBUTYL)NITROSAMINE, 3817-11-6, DIMETHY, Doses [Carcinogen]: 100 MG/KG BW DEN ONCE FOLLOWED BY 20 MG/KG BW MNU 4 TIMES AND 0.05% BBN IN DRINKING WATER DURING FIRST 2 WK THEN 40 MG/K, Doses [Promoter]: 0, 1% IN THE DIET FOR 24 WK BEGINNING 1 DAY POST CARCINOGEN TREATMENT (STUDY DURATION: 28 WK), Route [Carcinogen]: INTRAPERITONEAL, INTRAPERITONEAL, ORAL, SUBCUTANEOUS, ORAL, Route [Carcinogen]: INTRAPERITONEAL, INTRAPERITONEAL, ORAL, SUBCUTANEOUS, ORAL, Route [Promoter]: ORAL, Species: RAT, Strain/Sex: F344/MALE
  outcome: tongue: papilloma; forestomach: papilloma
Carcinogen: ETHYLNITROSOURETHANE, 614-95-9, Doses [Carcinogen]: 0.01% IN DRINKING WATER FOR 4 WK, Doses [Promoter]: 0, 0.25% IN DIET FOR 36 WK BEGINNING POST CARCINOGEN TREATMENT (STUDY DURATION: 40 WK), Route [Carcinogen]: ORAL, Route [Promoter]: ORAL, Species: RAT, Strain/Sex: F344/MALE
  outcome: forestomach: papilloma, carcinoma

## O=C(OOC(=O)c1ccccc1)c1ccccc1
Carcinogen: 7,12-DIMETHYLBENZ(A)ANTHRACENE, Doses [Carcinogen]: TOP, Route [Carcinogen]: DERMAL, Route [Promoter]: DERMAL, Species: MOUSE, Strain/Sex: FEMALE
  outcome: integumentary system (skin)
Carcinogen: 7,12-DIMETHYLBENZ[A]ANTHRACENE, 57-97-6, Doses [Carcinogen]: 0.1% IN MINERAL OIL APPLIED TO BUCCAL POUCHES 3/WK FOR 10 WK, Doses [Promoter]: 0, 40% IN ACETONE APPLIED TO BUCCAL POUCHES 3/WK FOR 6 WK BEGINNING 6 WK POST CARCINOGEN TREATMENT (STUDY DURATION: 25 W, Route [Carcinogen]: DERMAL, Route [Promoter]: DERMAL, Species: HAMSTER, Strain/Sex: SYRIAN/MALE, FEMALE
  outcome: buccal pouch: tumor, carcinoma
Carcinogen: 7,12-DIMETHYLBENZ[A]ANTHRACENE, 57-97-6, Doses [Carcinogen]: 20 NMOL IN ACETONE ONCE, Doses [Promoter]: 0, 0.2 ML OF 100 MG/ML SOLUTION IN ACETONE 2/WK FOR 51 WK (STUDY DURATION: 52 WK), Route [Carcinogen]: DERMAL, Route [Promoter]: DERMAL, Species: MOUSE, Strain/Sex: SENCAR/FEMALE
  outcome: skin: squamous cell carcinoma
Carcinogen: N-METHYL-N'-NITRO-N-NITROSOGUANIDINE, 70-25-7, Doses [Carcinogen]: 4 UMOL IN 200 µL ACETONE ONCE, Doses [Promoter]: 0, 10, 20 MG IN 200 µL ACETONE 2/WK FOR 52 WK BEGINNING 2 WK POST CARCINOGEN DOSE (STUDY DURATION: 52 WK), Doses [Promoter]: 0, 10, 20 MG IN 200 µL ACETONE 2/WK FOR 52 WK BEGINNING 2 WK POST CARCINOGEN DOSE (STUDY DURATION: 52 WK), Route [Carcinogen]: DERMAL, Route [Promoter]: DERMAL, Species: MOUSE, Strain/Sex: C3H/FEMALE
  outcome: skin: tumor

## CC/C=C/C=C/C=C/C=C/C=C/OC[C@@H](O)CO
Carcinogen: N-METHYL-N-NITROSOUREA, 684-93-5, Doses [Carcinogen]: 2 NG IN 0.5 ML WATER 3/WK FOR 3 WK, Doses [Promoter]: 0, 400 NG IN 0.5 ML BUFFER 2/WK FOR 24 WK BEGINNING 5 WK POST CARCINOGEN TREATMENT (STUDY DURATION: 32 WK), Route [Carcinogen]: INTRARECTAL, Route [Promoter]: INTRARECTAL, Species: RAT, Strain/Sex: F344/FEMALE
  outcome: colon: carcinoma

## CCCCCCCCCCCCCCCCCCCC
Carcinogen: 7,12-DIMETHYLBENZ(A)ANTHRACENE, Doses [Carcinogen]: TOP, Route [Carcinogen]: DERMAL, Route [Promoter]: DERMAL, Species: MOUSE, Strain/Sex: MALE,FEMALE
  outcome: integumentary system (skin)

## CN(C)CCC=C1c2ccccc2CCc2ccccc21
Carcinogen: 7,12-DIMETHYLBENZ[A]ANTHRACENE, 57-97-6, Doses [Carcinogen]: 20 MG IN 2 ML PEANUT OIL ONCE, Doses [Promoter]: 0, 80 MG/M2 5 D/WK FOR 15 WK BEGINNING POST CARCINOGEN DOSE (STUDY DURATION: 15 WK), Route [Carcinogen]: GAVAGE, Route [Promoter]: INTRAPERITONEAL, Species: RAT, Strain/Sex: SPRAGUE-DAWLEY/FEMALE
  outcome: mammary gland: tumor

## Oc1ccc(O)cc1
Carcinogen: N-ETHYL-N-HYDROXYETHYLNITROSAMINE, 13147-25-6, Doses [Carcinogen]: 0.1% IN DRINKING WATER FOR 3 WK, Doses [Promoter]: 0, 0.8% IN DIET FOR 36 WK BEGINNING 1 WK POST CARCINOGEN TREATMENT (STUDY DURATION: 40 WK), Route [Carcinogen]: ORAL, Route [Promoter]: ORAL, Species: RAT, Strain/Sex: WISTAR/MALE
  outcome: kidney: microadenoma, renal cell tumor
Carcinogen: N-METHYL-N-NITROSOUREA [684-93-5], Doses [Carcinogen]: 20 MG/KG BW ONCE ON DAY 9 AFTER BIRTH (STUDY DURATION: 28 WK), Doses [Promoter]: 0.8% IN DIET FOR 26 WK BEGINNING 2 WK POST LAST CARCINOGEN DOSE (STUDY DURATION: 28 WK), Route [Carcinogen]: INTRAPERITONEAL, Route [Promoter]: ORAL, Species: MOUSE, Strain/Sex: ICR (CD-1)/FEMALE
  outcome: lung: adenoma
Carcinogen: N-METHYL-N-NITROSOUREA [684-93-5], Doses [Carcinogen]: 20 MG/KG BW ONCE ON DAY 9 AFTER BIRTH (STUDY DURATION: 28 WK), Doses [Promoter]: 0.8% IN DIET FOR 26 WK BEGINNING 2 WK POST LAST CARCINOGEN DOSE (STUDY DURATION: 28 WK), Route [Carcinogen]: INTRAPERITONEAL, Route [Promoter]: ORAL, Species: MOUSE, Strain/Sex: ICR (CD-1)/MALE
  outcome: lung: carcinoma
